Type in all cases: cell-based
One assay relates to P-388. In words: Mouse leukemia cell P-388 growth inhibition. The method, then: (§1) The structural modifications of dolastatin 10 whose design and synthesis are described herein were evaluated for antineoplastic activity. This evaluation was conducted using the standard protocols established by National Cancer Institute (NCI) as described above. These protocols do evaluate whether the substances in question have antineoplastic activity against certain human cancer cell lines derived from human cancer patients. Substantial activity was found in those compounds tested. The antineoplastic activity of the compounds is reported below in Table 1. The results of the 60 cell line NCI in vitro testing of compound 6b conducted Jun. 22, 1992, is reported below in Table 2.

The subject of a further assay is OVCAR-3. In words: NCI human cancer cell line test, Ovarian OVCAR-3.
Description: (§2) Only two hundred years ago, many diseases ravaged humankind. Many of these diseases have been controlled or eradicated. In the development of the means to treat or control these diseases, work with the appropriate common experimental animals was of critical importance. With the various types of cancers, and with the HIV virus, such work is presently ongoing. The research for the treatment of various types of cancer is coordinated by the National Cancer Institute (NCI).NCI, as a government entity, has been charged with assisting anti-cancer research. To establish whether a substance has anti cancer activity, NCI has established a protocol. This protocol, which involves testing a substance against a cell line panel containing 60 human tumor cell lines, has been verified, and is accepted in scientific circles. This protocol, and the established statistical means of evaluating the results obtained therefrom have been amply described in the literature. See e.g. Principles & Practice of Oncology PPO Updates, Volume 3, Number 10, October 1989, by Michael R. Boyd, M.D., Ph.D., for a description of the protocol. The statistical analysis is explained in "Display and Analysis of Patterns of Differential Activity of Drugs Against Human Tumor Cell Lines: Development of Mean Graph and COMPARE Algorithm" Journal of the National Cancer Institute Reports Vol. 81, No. 14, Pg. 1088, Jul. 14, 1989, by K. D. Paull et al. Both articles are incorporated herein by this reference as if fully set forth.
as §1

A further assay relates to SF-295. In words: NCI human cancer cell line test, CNS SF-295.
Description: as §2, §1

The test system of a further assay is A498. In words: NCI human cancer cell line test, Renal A498.
Description: as §2, §1

The test system of the next assay is NCI-460. Kind of assay: NCI human cancer cell line test, Lung-NSC NCI-460.
Description: as §2, §1

Another assay has as its system KM20L2. In words: NCI human cancer cell line test, Colon KM20L2.
Description: as §2, §1

For the next assay, the system named is SK-MEL-3. Kind of assay: NCI human cancer cell line test, Melanoma SK-MEL-3.
Description: as §2, §1

In the next assay the test system is human cancer cell line. Kind of assay: Human cancer cell line activity compared to dolastatin 10.

A value given as a limit tells only on which side of the number the result lay.

From patent US6034065A, “Elucidation and synthesis of antineoplastic tetrapeptide phenethylamides of dolastatin 10” (Arizona Board of Regents, priority 1992, dated 2000) come the findings set out here.

For orientation: TGI means the concentration giving total growth inhibition. Read a low TGI as more potent growth arrest. “[2S-[1[1R*(R*),2S*],2R*[1S*,2S*]]]-N,N-dimethyl-L-valyl-N-[2-methoxy-4-[2- [1-methoxy-2-methyl-3-oxo-3-[[2-phenyl-ethyl]amino]propyl]-1-pyrrolidinyl-1-(methylpropyl)-4-oxobutyl]-N-methyl-L-valineamide [Compound 6b]”: the ED-50 with P-388 is 0.0005 mg/mL. The GI-50 is 0.000004 µg/mL in the assay on OVCAR-3; 0.000014 µg/mL in the assay with SF-295; 0.000013 µg/mL in the assay on A498; 0.000005 µg/mL with NCI-460; 0.000005 µg/mL with KM20L2; 0.000012 µg/mL in the assay on SK-MEL-3. Moreover, the LC-50 in the assay on OVCAR-3, with SF-295, with A498, in the assay on NCI-460, in the assay with KM20L2 and in the assay on SK-MEL-3 was under 0.0001 µg/mL in each case. Moreover, the TGI with OVCAR-3 is 0.027 ng/mL; in the assay on SF-295, 0.042 ng/mL; with A498, under 0.1 ng/mL; with NCI-460, under 0.1 ng/mL; in the assay with KM20L2 it was under 0.1 ng/mL; in the assay on SK-MEL-3 it was under 0.1 ng/mL.
In the case of “[2S-[1[1R*(R*),2S*],2R*[1S*,2S*]]]-N,N-dimethyl-L-valyl-N-[2-methoxy-4-[2- [1-methoxy-2-methyl-3-oxo-3-benzylamino-propyl]-1-pyrrolidinyl-1-(methylpropyl)-4-oxobutyl]-N-methyl-L-valineamide [Compound 6a]”, in the assay with P-388, the ED-50 is 0.00378 mg/mL. Moreover, the GI-50 in the assay with OVCAR-3, with SF-295, in the assay on A498, in the assay on NCI-460, with KM20L2 and in the assay with SK-MEL-3 was under 0.0001 µg/mL throughout. Also, the LC-50 with OVCAR-3, in the assay on SF-295, in the assay on A498, with NCI-460, in the assay on KM20L2 and with SK-MEL-3 was under 0.0001 µg/mL throughout. Moreover, the TGI in the assay with OVCAR-3, in the assay on SF-295, in the assay with A498, in the assay with NCI-460, in the assay with KM20L2 and in the assay on SK-MEL-3 was under 0.1 ng/mL each time.
“[2S-[1[1R*(R*),2S*],2R*[1S*,2S*]]]-N,N-dimethyl-L-valyl-N-[2-methoxy-4-[2- [1-methoxy-2-methyl-3-oxo-3-[[3-phenyl-propyl]amino]propyl]-1-pyrrolidinyl- 1-(methylpropyl)-4-oxobutyl]-N-methyl-L-valineamide [Compound 6c]” had an ED-50 in the assay on P-388 of 0.00044 mg/mL. The GI-50 was 0.00018 µg/mL with OVCAR-3; 0.00028 µg/mL in the assay on SF-295; 0.00039 µg/mL in the assay on A498; 0.00031 µg/mL in the assay with NCI-460; 0.00033 µg/mL in the assay with KM20L2; 0.00031 µg/mL with SK-MEL-3. The LC-50 with OVCAR-3, with SF-295, in the assay with A498, in the assay with NCI-460, with KM20L2 and in the assay with SK-MEL-3 was under 0.01 µg/mL each time. For the same substance, the TGI in the assay on OVCAR-3 is 0.54 ng/mL; in the assay on SF-295, 0.79 ng/mL; with A498, under 10 ng/mL; with NCI-460, under 10 ng/mL; in the assay on KM20L2, under 10 ng/mL; in the assay with SK-MEL-3, under 10 ng/mL.
Take R-Doe-isodolastatin 10: the “human cancer cell line activity as compared to dolastatin 10” value in the assay on human cancer cell line is “did not show any significant difference”.
